Reference: patent US20260091008A1, “DOUBLE TARGETED CONSTRUCTS TO AFFECT TUMOR KILL” (Cornell University, priority 2016, published 2026)
pIC50, pKd: −log10 of the molar value. Where “and” joins values, the source holds several entries; their conditions need not be identical. Equal values may be shown once.

Assays:
HSA = HSA (Homo sapiens, UniProt P02768); test: HSA affinity determination on immobilized-HSA microcolumns; assay type: binding; conditions: HSA microcolumn, phosphate buffer pH 7.4, room temperature
Chain of HSA (P02768 25-609): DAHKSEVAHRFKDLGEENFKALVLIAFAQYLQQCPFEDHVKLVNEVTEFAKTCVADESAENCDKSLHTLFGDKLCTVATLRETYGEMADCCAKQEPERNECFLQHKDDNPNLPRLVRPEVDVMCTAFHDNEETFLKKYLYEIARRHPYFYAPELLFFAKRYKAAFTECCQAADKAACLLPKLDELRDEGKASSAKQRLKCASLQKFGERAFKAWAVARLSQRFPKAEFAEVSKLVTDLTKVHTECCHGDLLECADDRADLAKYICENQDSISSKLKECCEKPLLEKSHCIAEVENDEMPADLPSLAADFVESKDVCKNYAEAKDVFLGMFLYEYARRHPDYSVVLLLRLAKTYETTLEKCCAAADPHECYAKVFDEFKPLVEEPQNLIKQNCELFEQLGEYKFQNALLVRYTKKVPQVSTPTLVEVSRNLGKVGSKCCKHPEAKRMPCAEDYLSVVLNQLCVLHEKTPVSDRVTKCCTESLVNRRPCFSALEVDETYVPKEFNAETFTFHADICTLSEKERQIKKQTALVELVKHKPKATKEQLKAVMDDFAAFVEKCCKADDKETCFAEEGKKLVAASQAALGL
Description: HSA affinity determination. HSA was immobilized to HPLC-grade silica by the Schiff base method as described previously and were packed into 10 mm×2.1 mm i.d. microcolumns. See Chen J, Hage D S. Quantitative studies of allosteric effects by biointeraction chromatography: analysis of protein binding for low-solubility drugs. Anal Chem. 2006:78:2672-2683 and Matsuda R, Anguizola J, Hoy K S, Hage D S. Analysis of drug-protein interactions by high-performance affinity chromatography: interactions of sulfonyl urea drugs with normal and glycated human serum albumin. Methods Mol Biol. 2015; 1286:255-277, each of which is incorporated herein by reference. The protein content of these columns was approximately 60 mg HSA per gram of silica. See Zheng X, Podariu M, Bi C, Hage D S. Development of enhanced capacity affinity microcolumn by using a hybrid of protein cross-linking/modification and immobilization. J. Chromatogr A. 2015; 1400:82-90, incorporated herein by reference. Control microcolumns were prepared in the same manner but with no HSA being added during the immobilization step. The retention factor for each compound was measured on both an HSA microcolumn and a control column by injecting 5 μL samples that contained approximately 50 μM of the compound in 0.067M potassium phosphate buffer (pH 7.4). All samples were injected in triplicate at room temperature and at 1.0 mL/min, with the phosphate buffer used as the mobile phase. Similar injections were made with samples containing sodium nitrate, which was used as a void volume marker. Elution of the injected compounds was monitored by absorbance detection. The dissociation constant (Kd) for each compound with HSA estimated by using the measured retention factors, after correcting for any observed retention on the control column, along with the estimated content of active HSA in the column, as based on injections made with warfarin and L-tryptophan (i.e., probes for Sudlow sites I and II of HSA). See Chen J, Hage D S. Anal Chem. 2006:78:2672-2683 (cited above) and Joseph K S, Hage D S. The effects of glycation on the binding of human serum albumin to warfarin and L-tryptophan. J Pharm Biomed Anal. 2010; 53:811-818, incorporated herein by reference.

PSMA on LNCaP cells = molecular target: T1, PSMA on LNCaP cells (Homo sapiens, UniProt Q04609); test: Multi-concentration competitive binding assay against 99mTc-MIP-1427 on LNCaP cells; conditions: non-radioactive ligands vs 1 nM 99mTc-MIP-1427, LNCaP cells, 1 h
T1 construct: host or cells: LNCaP
T1 sequence (Q04609 whole entry): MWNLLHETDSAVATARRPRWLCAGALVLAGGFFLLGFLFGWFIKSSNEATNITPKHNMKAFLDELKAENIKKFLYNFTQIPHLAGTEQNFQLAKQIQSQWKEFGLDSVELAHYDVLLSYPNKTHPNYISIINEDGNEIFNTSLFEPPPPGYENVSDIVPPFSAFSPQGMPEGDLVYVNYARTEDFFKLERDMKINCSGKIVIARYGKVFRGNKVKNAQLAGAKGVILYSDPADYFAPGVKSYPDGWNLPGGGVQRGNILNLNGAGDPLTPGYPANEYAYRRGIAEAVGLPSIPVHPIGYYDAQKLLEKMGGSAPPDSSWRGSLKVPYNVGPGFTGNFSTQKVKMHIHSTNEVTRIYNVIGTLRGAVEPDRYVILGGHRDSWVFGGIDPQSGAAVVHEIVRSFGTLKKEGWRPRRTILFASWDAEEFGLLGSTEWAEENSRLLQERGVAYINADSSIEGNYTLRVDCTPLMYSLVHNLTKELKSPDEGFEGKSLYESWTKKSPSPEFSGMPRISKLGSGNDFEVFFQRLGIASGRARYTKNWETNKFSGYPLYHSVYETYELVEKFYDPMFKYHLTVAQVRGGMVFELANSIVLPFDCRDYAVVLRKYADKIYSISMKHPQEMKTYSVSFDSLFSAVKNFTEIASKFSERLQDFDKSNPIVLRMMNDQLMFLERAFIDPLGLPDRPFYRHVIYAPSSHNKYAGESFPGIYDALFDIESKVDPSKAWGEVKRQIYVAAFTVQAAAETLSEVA
Experimental: Cell Culture. […] Cell culture supplies were from Invitrogen unless otherwise noted.
In vitro determination of IC50. […] Eur J Nucl Med Mol Imaging. 2017; 44, 647-661, incorporated herein by reference. […] The cells were incubated for 1 h with 1 nM ^99mTc-MIP-1427 in serum-free RPMI-1640 medium in the presence of 0.1-10,000 nM test compounds. […] Cells were harvested from the plates and transferred to tubes for radioactive counting using a Packard Cobra II Gamma Counter. IC50 values were determined by non-linear regression using GraphPad Prism software.

LNCaP cell xenografts = test: Tissue distribution of 131I-labeled compounds in mice bearing LNCaP xenografts; conditions: male, NCr-nu/nu, mouse, in vivo
Experimental: Inoculation of mice with xenografts. All animal studies were approved by the Institutional Animal Care and Use Committee of Weill Cornell Medicine and were undertaken in accordance with the guidelines set forth by the USPHS Policy on Humane Care and Use of Laboratory Animals. Animals were housed under standard conditions in approved facilities with 12 h light/dark cycles. Food and water was provided ad libitum throughout the course of the studies. Male inbred athymic nu/nu mice were purchased from The Jackson Laboratory. For inoculation in mice, LNCaP cells were suspended at 4×10^7 cells/mL in a 1:1 mixture of PBS:Matrigel (BD Biosciences). Each mouse was injected in the left flank with 0.25 mL of the cell suspension. The mice were imaged when the tumors reached approximately 200-400 mm^3, while biodistributions were conducted when tumors were in the range 100-400 mm^3.
Tissue Distribution Studies. A quantitative analysis of the tissue distribution of ^131I-labeled compounds was performed in separate groups of male NCr-nu/nu mice bearing LNCaP cell xenografts administered via the tail vein as a bolus injection (approximately 370 kBq (10 μCi)/mouse) in a volume of 0.05-0.1 mL of saline solution containing 2.5% v/v DMSO. The animals (n=3-5/time point) were euthanized by asphyxiation with CO2 at the indicated time points after injection. Tissues, including blood, heart, lungs, liver, spleen, pancreas, kidneys, stomach, large and small intestines (with contents), skeletal muscle, bone, and tumor, were dissected, excised, weighed wet (Sartorius analytical balance), and counted in a Wizard automated […] (Perkin Elmer). A 1% ID/g standard was counted with the tissue samples. Tissue time-radioactivity levels expressed as percent injected dose per gram of tissue (% ID/g) were determined. Blood pharmacokinetics were modeled as a dual compartment system using bi-exponential least-squares regression fit to the data. Regression method was implemented in MATLAB R2015b (MathWorks, Natick, MA).

[1] = salivary glands, radioligand therapy; cited from earlier work
[2] = in vivo; cited from earlier work

O=C(O)CC[C@H](NC(=O)N[C@@H](CCCCNC(=O)Nc1ccc(I)cc1)C(=O)O)C(=O)O [RPS-001, reference compound]
pKd (HSA): 4.72

O=C(O)CC[C@H](NC(=O)N[C@@H](CCCCNC(=O)CCCc1ccc(I)cc1)C(=O)O)C(=O)O [RPS-005, (((S)-1-Carboxy-5-(4-(4-iodophenyl)butanamido)pentyl)carbamoyl)-L-glutamic acid]
pKd (HSA): 6.01
pIC50 (PSMA on LNCaP cells): 8.40

O=C(O)CC[C@H](NC(=O)N[C@@H](CCC(=O)N[C@@H](CCCCNC(=O)CCCc1ccc(I)cc1)C(=O)O)C(=O)O)C(=O)O [RPS-025, (3S,7S,12S)-21-(4-iodophenyl)-5,10,18-trioxo-4,6,11,17-tetraazahenicosane-1,3,7,12-tetracarboxylic acid]
pKd (HSA): > 6.00
Kd for HSA (HSA): could not be eluted from the column
pIC50 (PSMA on LNCaP cells): 7.82

O=C(O)CC[C@H](NC(=O)N[C@@H](CCCCNC(=O)CCc1ccc(I)cc1)C(=O)O)C(=O)O [RPS-026, (((S)-1-Carboxy-5-(3-(4-iodophenyl)propanamido)pentyl)carbamoyl)-L-glutamic acid]
pKd (HSA): 4.58
pIC50 (PSMA on LNCaP cells): 7.40

O=C(O)CC[C@H](NC(=O)N[C@@H](CCCCNC(=O)Cc1ccc(I)cc1)C(=O)O)C(=O)O [RPS-027, (((S)-1-Carboxy-5-(2-(4-iodophenyl)acetamido)pentyl)carbamoyl)-L-glutamic acid]
pKd (HSA): 4.96 and 4.95
pIC50 (PSMA on LNCaP cells): 7.82

O=C(O)CCC(NC(=O)N[C@@H](CCCCNC(=O)Nc1ccc([131I])cc1)C(=O)O)C(=O)O (some centres unmarked) [^131I-RPS-001]
Blood t1/2 for the distribution phase (LNCaP cell xenografts): 2.17 h
Blood t1/2 for the elimination phase (LNCaP cell xenografts): 20.38 h
Initial kidney uptake (LNCaP cell xenografts): > 100 % ID/g
Time post injection at which T/K ratio reaches 3 (LNCaP cell xenografts): ~96 h
Kidney uptake (LNCaP cell xenografts; 24 h): 65.24±22.61 % ID/g
Large intestine uptake (LNCaP cell xenografts; 24 h): 2.35±1.26 % ID/g
Spleen uptake (LNCaP cell xenografts; 24 h): 2.41±1.40 % ID/g
Tumor uptake (LNCaP cell xenografts; 24 h): 19.81±6.16 % ID/g
Kidney uptake (LNCaP cell xenografts; 96 h): 2.12±2.47 % ID/g
Tumor uptake (LNCaP cell xenografts; 96 h): 10.21±4.30 % ID/g
Toxicity reported in patients [1]: dose-limiting toxicity to the salivary glands

O=C(O)CCC(NC(=O)NC(CCCCNC(=O)CCCc1ccc([131I])cc1)C(=O)O)C(=O)O (centres unmarked) [^131I-RPS-005]
Blood activity (LNCaP cell xenografts; 24 h): 21.35±3.99 % ID/g
Heart uptake (LNCaP cell xenografts; 24 h): 4.40±0.74 % ID/g
Kidney uptake (LNCaP cell xenografts; 24 h): 39.09±2.96 % ID/g
Liver uptake (LNCaP cell xenografts; 24 h): 3.41±0.56 % ID/g
Lungs uptake (LNCaP cell xenografts; 24 h): 8.87±0.74 % ID/g
Tumor uptake (LNCaP cell xenografts; 24 h): 9.37±1.56 % ID/g
Blood activity (LNCaP cell xenografts; 96 h): 15.57±3.98 % ID/g
Tumor uptake (LNCaP cell xenografts; 96 h): 10.82±2.64 % ID/g
pKd (HSA): 6.05

O=C(O)CC[C@H](NC(=O)NC(CCCCNC(=O)c1ccc([211At])cc1)C(=O)O)C(=O)O (stereo partly drawn) [^211At-6, (2S)-2-(3-(1-carboxy-5-(4-^211At-astatobenzamido)pentyl)ureido)-pentanedioic acid]
Nephrotoxicity [2]: dose-limiting, irreversible nephrotoxicity

O=C([O-])CC[C@H](NC(=O)N[C@@H](CCCCNC(=O)[C@H](Cc1ccc2ccccc2c1)NC(=O)[C@H]1CC[C@H](CNC(=O)CN2CCN(CC(=O)[O-])CCN(CC(=O)[O-])CCN(CC(=O)[O-])CC2)CC1)C(=O)[O-])C(=O)[O-].[225Ac].[H+].[H+].[H+] [^225Ac-PSMA-617]
Toxicity reported in patients [1]: severe and sustained xerostomia

(((S)-1-Carboxy-4-(2-(4-iodophenyl)acetamido)pentyl)carbamoyl)-L-glutamic acid [RPS-023]
pKd (HSA): 4.27
pIC50 (PSMA on LNCaP cells): 8.00

(((S)-1-Carboxy-4-(3-(4-iodophenyl)propanamido)pentyl)carbamoyl)-L-glutamic acid [RPS-022]
pKd (HSA): 4.64
pIC50 (PSMA on LNCaP cells): 8.00

(((S)-1-Carboxy-4-(4-(4-iodophenyl)butanamido)pentyl)carbamoyl)-L-glutamic acid [RPS-020]
pKd (HSA): 5.68
pIC50 (PSMA on LNCaP cells): 8.10
